Literature values, collected in patent US6852845B1, “Method of identifying toxic agents using NSAID-induced differential gene expression in liver” (Curagen Corporation, priority 1999, dated 2005).

Columns and labels:
liver [1] = details: risk class assigned to each NSAID (low, very low, overdose risk)
liver [2] = details: injury type classes of Table 5: hepatocellular damage, cholestasis, elevated transaminase level

SMILES	Hepatotoxicity Risk of NSAIDs: Risk (liver [1])	type of hepatoxicity injury induced by the NSAID (liver [2])
CC(=O)Oc1ccccc1C(=O)O [Acetylsalicylic Acid]	Overdose Risk	
CC(C(=O)O)c1ccc2oc(-c3ccc(Cl)cc3)nc2c1 (stereo not shown) [Benoxaprofen]	Low Risk	cholestatis-inducing
Nc1c(CC(=O)O)cccc1C(=O)c1ccc(Br)cc1 [Bromfenac]	Low Risk	
O=C(O)Cc1ccccc1Nc1c(Cl)cccc1Cl [Diclofenac]	Low Risk	
CCc1cccc2c3c([nH]c12)C(CC)(CC(=O)O)OCC3 (stereo not shown) [Etodolac]	Very Low Risk	
CC(C(=O)O)c1cccc(Oc2ccccc2)c1 (stereo not shown) [Fenoprofen]	Very Low Risk	
CC(C(=O)O)c1ccc(-c2ccccc2)c(F)c1 (stereo not shown) [Flurbiprofen]	Very Low Risk	hepatocellular damage
COc1ccc2c(c1)c(CC(=O)O)c(C)n2C(=O)c1ccc(Cl)cc1 [Indomethacin]	Very Low Risk	
CC(C(=O)O)c1cccc(C(=O)c2ccccc2)c1 (stereo not shown) [Ketoprofen]	Very Low Risk	
Cc1ccc(Cl)c(Nc2ccccc2C(=O)O)c1Cl [Meclofenamate]	Very Low Risk	
Cc1cccc(Nc2ccccc2C(=O)O)c1C [Mefenamic Acid]	Very Low Risk	elevated transaminase level
COc1ccc2cc(CCC(C)=O)ccc2c1 [Nabumetone]	Very Low Risk	cholestatis-inducing
O=C(O)CCc1nc(-c2ccccc2)c(-c2ccccc2)o1 [Oxaprozin]	Very Low Risk	
CCOc1ccc(NC(C)=O)cc1 [Phenacetin]	Overdose Risk	
CCCCC1C(=O)N(c2ccccc2)N(c2ccccc2)C1=O [Phenylbutazone]	Low Risk	
CN1C(C(=O)Nc2ccccn2)=C(O)c2ccccc2S1(=O)=O [Piroxicam]	Very Low Risk	
CC1=C(CC(=O)O)c2cc(F)ccc2/C1=C\c1ccc([S+](C)[O-])cc1 (stereo not shown) [Sulindac]	Low Risk	cholestatis-inducing
CC(C(=O)O)c1ccc(C(=O)c2cccs2)cc1 (stereo not shown) [Suprofen]	Very Low Risk	
CN1C(C(=O)Nc2ccccn2)=C(O)c2sccc2S1(=O)=O [Tenoxicam]	Very Low Risk	elevated transaminase level
Cc1ccc(C(=O)c2ccc(CC(=O)O)n2C)cc1 [Tolmentin]	Very Low Risk	
Cc1cc(CC(=O)O)n(C)c1C(=O)c1ccc(Cl)cc1 [Zomepirac]	Very Low Risk	elevated transaminase level
